Tests used:
[1] = tested on: serum cardiac Troponin-I; settings: 30 mg/kg oral daily, end of treatment
[2] = tested on: HMVEC-Cs; assay: Vasculogenesis assay; settings: Homo sapiens, 6 h
[3] = in vivo; settings: male, C57Bl/6, mouse, plasma, po, 10 mg/kg
[4] = oral dose escalation, maximal dose 60 mg/kg, 30 days
[5] = tested on: hiPSC-CMs; assay: hiPSC-CM contractility; assay type: cell-based; settings: Homo sapiens, 96 h, read-out: hiPSC-CM contractility IC50

SMILES: Cc1ccc(C(=O)Nc2ccc(CN3CCN(C)CC3)c(C(F)(F)F)c2)cc1C#Cc1cnc2cccnn12 [Ponatinib]
- serum cardiac Troponin-I levels compared with vehicle alone [1]: significantly elevated levels
- IC50 ([2]; read-out: Vascular profile IC50): ~200 nM
- EC50 ([2]; read-out: Vasculotoxicity (EC50, μmol/L) mean ± SEM): 0.2 ± 0.04 µmol/L
- Cmax [3]: 200 ng/mL
- Tmax [3]: 2 h
- dose causing lethality [4]: 50 mg/kg
- IC50 [5]: > 1500 nM

From paper PMC9620869 (Cancer Research, 2022)
